{
  "source": "ChEMBL document CHEMBL1128364",
  "about": "(J Med Chem, 1995)",
  "key": {"Oxytocin receptor [1]": {"biological_target": "T1, Oxytocin receptor (Rattus norvegicus, UniProt P70536)", "T1 sequence (P70536 whole entry)": "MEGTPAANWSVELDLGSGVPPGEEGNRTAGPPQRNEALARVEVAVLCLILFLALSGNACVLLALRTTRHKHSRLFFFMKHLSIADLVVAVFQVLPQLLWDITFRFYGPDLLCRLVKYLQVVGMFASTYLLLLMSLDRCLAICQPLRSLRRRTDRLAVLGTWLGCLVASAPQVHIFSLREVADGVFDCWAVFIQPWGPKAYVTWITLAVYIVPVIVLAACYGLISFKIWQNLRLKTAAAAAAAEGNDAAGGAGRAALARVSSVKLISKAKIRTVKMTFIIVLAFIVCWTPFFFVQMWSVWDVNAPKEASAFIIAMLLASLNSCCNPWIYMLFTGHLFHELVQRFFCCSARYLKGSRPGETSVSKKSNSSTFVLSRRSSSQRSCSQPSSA", "assay": "(§1) Compound was evaluated for the oxytocic activity with 0.5 mM Mg2+.", "conditions": "read-out: pA2 (converted)"}, "Oxytocin receptor [2]": {"biological_target": "T1, Oxytocin receptor", "assay": "(§2) Compound was evaluated for the oxytocic activity with out Mg2+.", "conditions": "read-out: pA2 (converted)"}, "Oxytocin receptor [3]": {"biological_target": "T1, Oxytocin receptor", "assay": "In vitro activity for the anti-oxytocic activity with out Mg2+.", "conditions": "read-out: pA2 (converted)"}, "Oxytocin receptor [4]": {"biological_target": "T1, Oxytocin receptor", "assay": "In vitro activity was determined for the anti-oxytocic activity with 0.5 mM Mg2+.", "conditions": "read-out: pA2 (converted)"}, "Vasopressin V2 receptor": {"biological_target": "Vasopressin V2 receptor (Rattus norvegicus, UniProt Q00788)", "sequence (Q00788 whole entry)": "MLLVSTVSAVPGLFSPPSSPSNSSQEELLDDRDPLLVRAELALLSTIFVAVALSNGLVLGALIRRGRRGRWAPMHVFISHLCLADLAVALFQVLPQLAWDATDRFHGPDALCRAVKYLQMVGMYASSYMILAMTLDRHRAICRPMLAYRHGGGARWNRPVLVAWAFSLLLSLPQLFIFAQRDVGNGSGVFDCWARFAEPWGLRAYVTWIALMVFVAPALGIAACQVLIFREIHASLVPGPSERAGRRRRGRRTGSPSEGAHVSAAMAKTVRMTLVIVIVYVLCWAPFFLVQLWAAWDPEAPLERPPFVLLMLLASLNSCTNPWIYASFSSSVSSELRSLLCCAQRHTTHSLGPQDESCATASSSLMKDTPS", "assay": "Antidiuretic activity at V2 receptor", "format": "tissue-based, Urine", "conditions": "read-out: pA2 (converted)"}, "Vasopressin V1a receptor [5]": {"biological_target": "T2, Vasopressin V1a receptor (Rattus norvegicus, UniProt P30560)", "T2 sequence (P30560 whole entry)": "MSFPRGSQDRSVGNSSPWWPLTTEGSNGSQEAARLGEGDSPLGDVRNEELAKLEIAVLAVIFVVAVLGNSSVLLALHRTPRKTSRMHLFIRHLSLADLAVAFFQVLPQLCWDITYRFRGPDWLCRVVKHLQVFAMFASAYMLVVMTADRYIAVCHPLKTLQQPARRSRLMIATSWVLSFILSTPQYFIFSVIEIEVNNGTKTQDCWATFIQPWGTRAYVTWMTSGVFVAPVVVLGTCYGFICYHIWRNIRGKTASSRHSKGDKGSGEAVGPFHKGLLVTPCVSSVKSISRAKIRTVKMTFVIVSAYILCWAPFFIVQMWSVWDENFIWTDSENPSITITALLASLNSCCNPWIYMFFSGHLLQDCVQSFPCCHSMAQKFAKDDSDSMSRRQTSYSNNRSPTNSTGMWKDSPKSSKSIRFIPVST", "assay": "Anti-vasopressor activity at V1a receptor", "conditions": "read-out: pA2 (converted)"}, "Rattus norvegicus": {"system": "Rattus norvegicus", "assay": "In vivo activity for the anti-oxytocic activity.", "format": "functional, organism-based", "conditions": "read-out: pA2 (converted)"}, "[6]": {"biological_target": "Vasopressin V2 receptor (Rattus norvegicus) (UniProt Q00788)", "sequence (Q00788 whole entry)": "as the sequence (Q00788 whole entry) above", "assay": "Antidiuretic activity at V2 receptor.", "conditions": "Urine"}, "[7]": {"biological_target": "T3, Oxytocin receptor (Rattus norvegicus) (UniProt P70536)", "T3 sequence (whole entry)": "T1 sequence (P70536 whole entry)", "assay": "as §1"}, "[8]": {"biological_target": "T3, Oxytocin receptor (Rattus norvegicus)", "assay": "as §2"}, "Vasopressin V1a receptor [9]": {"biological_target": "T2, Vasopressin V1a receptor", "assay": "Compound was evaluated for the anti-vasopressor activity at V1a receptor..", "conditions": "read-out: pA2 (converted)"}, "Oxytocin receptor [10]": {"biological_target": "T1, Oxytocin receptor", "assay": "In vitro activity for the anti-oxytocic activity with out Mg2+", "conditions": "read-out: pA2 (converted)"}},
  "data": [
    {"molecule": "NC(=O)CC[C@@H]1NC(=O)[C@H](Cc2ccccc2)NC(=O)[C@H](Cc2ccc(O)cc2)NC(=O)[C@@H](N)CSSC[C@H](C(=O)N2CCC[C@H]2C(=O)N[C@@H](CCCN=C(N)N)C(=O)NCC(N)=O)NC(=O)[C@H](CC(N)=O)NC1=O", "values": [
      {"measurement": "Kb", "setting": "Oxytocin receptor [1]", "value": 5750, "unit": "nM"},
      {"measurement": "Kb", "setting": "Oxytocin receptor [2]", "value": 214, "unit": "nM"}
    ]},
    {"molecule": "COc1ccc(C[C@@H]2NC(=O)CC3(CCCCC3)SSC[C@H](C(=O)N3CCC[C@H]3C(=O)N[C@@H](CCCN=C(N)N)C(=O)NCC(N)=O)NC(=O)[C@H](CC(N)=O)NC(=O)[C@H](CCC(N)=O)NC(=O)[C@H](Cc3ccccc3)NC2=O)cc1", "values": [
      {"measurement": "Kb", "setting": "Oxytocin receptor [3]", "value": 13.5, "unit": "nM"},
      {"measurement": "Kb", "setting": "Oxytocin receptor [4]", "value": 25.1, "unit": "nM"},
      {"measurement": "Kb", "setting": "Vasopressin V2 receptor", "value": 2880, "unit": "nM"},
      {"measurement": "Kb", "setting": "Vasopressin V1a receptor [5]", "value": 13.5, "unit": "nM"},
      {"measurement": "Kb", "setting": "Rattus norvegicus", "value": 251, "unit": "nM"}
    ]},
    {"molecule": "CC[C@H](C)[C@@H]1NC(=O)[C@H](Cc2ccc(O)cc2)NC(=O)[C@@H](N)CSSC[C@@H](C(=O)N2CCC[C@H]2C(=O)N[C@@H](CC(C)C)C(=O)NCC(N)=O)NC(=O)[C@H](CC(N)=O)NC(=O)[C@H](CCC(N)=O)NC1=O", "values": [
      {"measurement": "Antidiuretic activity", "setting": "[6]", "value": 4, "unit": "U mg-1"},
      {"measurement": "Oxytocic activity", "setting": "[7]", "value": 486, "unit": "U mg-1"},
      {"measurement": "Oxytocic activity", "setting": "[8]", "value": 520, "unit": "U mg-1"}
    ]},
    {"molecule": "COc1ccc(C[C@@H]2NC(=O)CC3(CCCCC3)SSC[C@@H](C(=O)N3CCC[C@H]3C(=O)N[C@@H](CCCN=C(N)N)C(=O)NCC(N)=O)NC(=O)[C@H](CC(N)=O)NC(=O)[C@H](CCC(N)=O)NC(=O)[C@H](Cc3ccccc3)NC2=O)cc1", "values": [
      {"measurement": "Kb", "setting": "Oxytocin receptor [4]", "value": 57.5, "unit": "nM"},
      {"measurement": "Kb", "setting": "Vasopressin V1a receptor [9]", "value": 2.4, "unit": "nM"},
      {"measurement": "Kb", "setting": "Oxytocin receptor [10]", "value": 7.41, "unit": "nM"}
    ]}
  ]
}
